In ChEMBL document CHEMBL5325396, “Discovery of Novel Acridane-Based Tubulin Polymerization Inhibitors with Anticancer and Potential Immunomodulatory Effects” (J Med Chem, 2023):

Legend:
[1] = tested on: B16-F10; assay: Induction of apoptosis in mouse B16-F10 cells assessed as necrotic cells at 10 nM incubated for 48 hrs by annexinV-FITC/PI staining based flow cytometry (reference value: 0.064 %); assay type: functional
[2] = tested on: B16-F10; assay: Induction of cell cycle arrest in mouse B16-F10 cells assessed as accumulation at G2 phase at 10 nM incubated for 24 hrs by PI staining based flow cytometry (reference value: 23.04 %); assay type: functional
[3] = tested on: B16-F10; assay: Induction of cell cycle arrest in mouse B16-F10 cells assessed as accumulation at S phase at 10 nM incubated for 24 hrs by PI staining based flow cytometry (reference value: 21.79 %); assay type: functional
[4] = tested on: B16-F10; assay: Induction of apoptosis in mouse B16-F10 cells assessed as late apoptotic cells at 10 nM incubated for 48 hrs by annexinV-FITC/PI staining based flow cytometry (reference value: 2.06 %); assay type: functional
[5] = tested on: B16-F10; assay: Induction of apoptosis in mouse B16-F10 cells assessed as early apoptotic cells at 25 nM incubated for 48 hrs by annexinV-FITC/PI staining based flow cytometry (reference value: 4.25 %); assay type: functional
[6] = tested on: B16-F10; assay: Antitumor activity against mouse B16-F10 cells allografted in C57 mouse assessed as tumor growth inhibition at 10 mg/kg, ip administered consecutively for 14 days in presence of NP-19; assay type: functional; conditions: B16-F10, 336 h, time 14 day, read-out: TGI
[7] = Toxicity in C57 mouse allografted with mouse B16-F10 cells assessed as body weight loss at 10 mg/kg, ip administered consecutively for 14 days in presence of NP-19; assay type: organism-based; conditions: in vivo, 336 h, time 14 day
[8] = tested on: B16-F10; assay: Induction of apoptosis in mouse B16-F10 cells assessed as necrotic cells at 50 nM incubated for 48 hrs by annexinV-FITC/PI staining based flow cytometry (reference value: 0.064 %); assay type: functional
[9] = tested on: HeLa; assay: cells; conditions: Homo sapiens, 48 h
Description: Antiproliferative activity against human HeLa cells incubated for 48 hrs by MTT assay

[10] = tested on: B16-F10; assay: Induction of apoptosis in mouse B16-F10 cells assessed as late apoptotic cells at 25 nM incubated for 48 hrs by annexinV-FITC/PI staining based flow cytometry (reference value: 2.06 %); assay type: functional
[11] = tested on: B16-F10; assay: Induction of cell cycle arrest in mouse B16-F10 cells assessed as accumulation at G1 phase at 25 nM incubated for 24 hrs by PI staining based flow cytometry (reference value: 52.77 %); assay type: functional
[12] = tested on: B16-F10; assay: Inhibition of cell migration in mouse B16-F10 cells assessed as wound area ratio at 25 nM incubated for 24 hrs by wound healing assay relative to control; assay type: functional

IC50 [9]: 37 nM
SMILES: COc1ccc2c(c1F)Cc1ccccc1N2C(=O)c1cc(OC)c(OC)c(OC)c1
Activity [1]: 0.133% | Activity [2]: 24.07% | Activity [3]: 22.85% | Activity [4]: 3.17% | Activity [5]: 22.7% | inhibition in vivo at 10 mg/kg [6]: 77.6% | Activity [7]: Non-Toxic | Activity [8]: 0.61% | Activity [10]: 6.63% | Activity [11]: 16.55% | Ratio [12]: 26.05%
